Results as given in patent publication EP4692059A1, “CATIONIC LIPID HAVING DISULFIDE BOND” (Tohoku University, priority 2023, dated 2024).

Columns and labels:
[1] = Measurement of Liposomal pKa (TNS fluorescence, LNP without nucleic acid); conditions: cationic lipid:DOPC:Chol = 52.5:7.5:40 (molar ratio) + DMG-PEG2k about 1.5 mol, pH at which the relative fluorescence intensity was 50%
Protocol: Lipid nano particles (LNP) without containing nucleic acid were used for the evaluation of Liposomal pKa.
To the obtained mixture was further added DMG-PEG2k (2 mM ethanol solution) in an amount of about 1.5 mol with respect to the total amount 100 mol of cationic lipid, DOPC, and Chol, and then ethanol was added to prepare an ethanol solution of the lipid (total amount: 360 µL).
An acidic malic acid buffer (20 mM, pH 3.0) (1080 µL) containing NaCl at a final concentration of 30 mM and an ethanol solution (360 µL) of lipid were each weighed in a syringe. Using an ultra high-speed nanomedicament producing apparatus NanoAssmblr (manufactured by Precision NanoSystems), LNP was prepared under the conditions of addition rate of acidic buffer solution: 3 mL/min, addition rate of ethanol solution of lipid: 1 mL/min, and syringe holder temperature: 25°C, and collected in a 15 mL tube. […]
20 mM Citrate buffer, sodium phosphate buffer, and tris HCl buffer, each containing NaCl at a final concentration of 150 mM and adjusted to various pHs within the range of pH 3.0 to 10.0, were prepared. […] The relative fluorescence intensity was calculated as a percentage, with the maximum value of the fluorescence intensity in each LNP being 100% and the minimum value being 0%.

[2] = tested on: mouse red blood cells; assay: Hemolysis activity (membrane fusion ability) at pH 7.4 and 5.5 (Experimental Example 5); format: cell-based, ICR mice
Protocol: LNPs encapsulating mRNA that expresses luciferase (cationic lipid:DOPC:Chol:DMG-PEG2k=52.5:7.5:40:1.5 (molar ratio)) were prepared using the method described in [Experimental Example 2] 1. As cationic lipid, the cationic lipid of Comparative Example, compound 9, compound 14, compound 27, compound 33, or compound 42 was used.
The collected blood was immediately mixed with 1.0 µL of heparin solution (5000 U/5 mL). About 9 mL of PBS was added to the blood to make the total volume 10 mL. The mixture was then mixed by inversion and centrifuged (4°C, 400 g, 10 min). The supernatant containing plasma components was removed using a Pasteur pipette. About 9 mL of PBS was added to the blood cell components to make the total volume 10 mL, and the mixture was centrifuged again. A similar washing procedure was repeated 4 times to obtain mouse red blood cells.
2, 4, 6, 8, and 10 µL of mouse red blood cells were weighed and diluted with PBS containing 1 w/v% Triton-X100. The entire diluted solution was transferred to a clear 96-well plate, and the absorbance at 545 nm was measured using a plate reader. A calibration curve was created using these samples, and the point where the absorbance reached 1 was determined as the amount of blood cells to be used in the hemolysis assay. Empty LNP solution was weighed into an Eppendorf tube and diluted with malic acid-PBS buffer (pH 5.5, pH 7.4), followed by addition of mouse red blood cells. The final lipid concentration was 100 µM at pH 7.4 and 33.3 µM at pH 5.5, and the final volume of the solution was 250 µL. Each tube was shaken at 1900 rpm for 15 min. Each sample was centrifuged under centrifugation conditions (4°C, 400 g, 5 min), and 100 µL of the supernatant was transferred to a clear 96-well plate and the absorbance at 545 nm was measured. Untreated red blood cells were used as the negative control. […] The hemolysis activity of each sample was calculated using the following formula: Hemolysis activity (%) = 100×(absorbance of each sample - absorbance of negative control)/(absorbance of positive control - absorbance of negative control).

[3] = tested on: liver; assay: In vivo gene expression, luciferase luminescence in the liver after tail vein administration (Experimental Example 4); conditions: BALB/c mouse, mRNA 0.05 mg/kg
Protocol: LNP encapsulating mRNA that expresses luciferase (cationic lipid:DOPC:Chol:DMG-PEG2k = 52.5:7.5:40:1.5 (molar ratio)) was prepared by the method described in [Experimental Example 2], 1.
The prepared each mRNA-encapsulating LNP dispersion was administered from the tail vein of BALB/c mouse (male, 5-week-old). The dose of mRNA was set to 0.05 mg per 1 kg body weight of the mouse, and the dose of the mRNA-encapsulating LNP dispersion was set to 10 µL per 1 g body weight of the mouse. After 4.5 hr from the administration of the mRNA-encapsulating LNP dispersion, a PBS solution of D-luciferin potassium was administered into the abdominal cavity of the mouse. The dose of D-luciferin potassium was set to 3 mg per mouse, and the dose of the PBS solution of D-luciferin potassium was set to 200 µL per mouse. After 15 min from the administration of the PBS solution of D-luciferin potassium, the mouse was euthanized, and the liver was isolated. The luminescence in the liver was quantified using an in vivo imaging system (IVIS) with an exposure of 10 sec. The amount of luminescence in the liver was quantified by image analysis using Live Imaging software attached to IVIS. The amount of luminescence (photons/sec) was calculated from the acquired image and used as an index of gene expression activity. The cationic lipids used, the luminescence intensity in the liver, and the relative luminescence intensity (= luminescence intensity in the liver when cationic lipid of Example was used/luminescence intensity in the liver when cationic lipid of Comparative Example was used) are shown in Table 7-1 to Table 7-3. "E+0a" (a: integer) indicated in Table 7-1 to Table 7-3 means "10^a". For example, "3.94E+09" means "3.94×10^9". […]

[4] = tested on: HeLa cells; assay: In vitro gene expression in HeLa cells (luciferase mRNA-encapsulating LNP, cumulative luminescence in 24 hr)
Protocol: LNP encapsulating mRNA that expresses luciferase (cationic lipid:DOPC:Chol:DMG-PEG2k = 50:10:40:1 (molar ratio)) was prepared by the method described in [Experimental Example 2], 1.
HeLa cells, which are human cervical cancer cells, were seeded in a 3.5 cm dish at 5.0×10^4 cells/2 mL/Dish 24 hours before transfection. After 24 hr, the medium was changed to a culture medium (D-MEM) containing 0.1 mM D-luciferin. The prepared mRNA-encapsulating LNP was diluted with PBS to an mRNA concentration of about 1 µg/mL. The diluted mRNA-encapsulating LNP solution (about 200 µL, mRNA: 0.2 µg) was added to a 3.5 cm dish, and set in an incubator luminometer KronosDio. The luminescence intensity of luciferase was measured for 2 min every one hour. The cumulative luciferase luminescence intensity in 24 hr was calculated from the obtained time change of expression. […] In Comparative Example, the cationic lipid described in Table 2 was used.

[5] = Particle size, PdI and zeta potential of mRNA-encapsulating LNPs by dynamic light scattering (Experimental Example 2); format: physicochemical; conditions: mRNA-encapsulating LNP, cationic lipid:DOPC:Chol = 50:10:40 (molar ratio) + DMG-PEG2k about 1 mol
Protocol: An acidic buffer solution (total amount: 1080 µL) of nucleic acid was prepared by weighing 7.2 µg of mRNA solution (0.6 mg/mL) in a 5 mL tube and adding acidic malate buffer (20 mM, pH 3.0).
An acidic buffer solution of nucleic acid and an ethanol solution of lipid were each weighed in a syringe.
The particle size, PdI (Polydispersity Index), and zeta potential of the mRNA-encapsulating LNP prepared by the method of the above-mentioned 1 were measured by a dynamic light scattering method (Zetasizer Nano; Malvern).

SMILES | Liposomal pKa [1] | hemolysis activity ([2]; pH of the endosomal environment (5.5), final lipid concentration 33.3 µM, Fig. 2, versus LNP of Comparative Example) | hemolysis activity ([2]; physiological pH (7.4), final lipid concentration 100 µM, Fig. 1) | amount of luminescence (photons/sec) in liver ([3]; tail vein, 4.5 hr after administration, LNP cationic lipid:DOPC:Chol:DMG-PEG2k = 52.5:7.5:40:1.5, prepared as in Experimental Example 2) | relative amount of luminescence ([3]; liver luminescence relative to cationic lipid of Comparative Example) | cumulative luciferase luminescence intensity (RLU) in 24 hr ([4]; LNP cationic lipid:DOPC:Chol:DMG-PEG2k = 50:10:40:1, mRNA 0.2 µg per dish, E+0a means 10^a) | relative luminescence intensity ([4]; cumulative intensity in 24 hr relative to cationic lipid of Comparative Example) | PdI ([5]; Polydispersity Index, dynamic light scattering) | zeta potential (mV) ([5]; Zetasizer Nano) | particle size (nm) ([5]; dynamic light scattering)
CCCCCCCC/C=C\CCCCCCCC(=O)O[C@H](C/C=C\CCCCCCCC(=O)Oc1ccc(CC(=O)OCCC2CCN(CCSSCCN3CCC(CCOC(=O)Cc4ccc(OC(=O)CCCCCCC/C=C\C[C@H](CCCCCC)OC(=O)CCCCCCC/C=C\CCCCCCCC)cc4)CC3)CC2)cc1)CCCCCC [compound 4] | 6.25 |  |  |  |  |  |  |  |  | 
CCCCCCCC/C=C\CCCCCCCC(=O)Oc1ccc(CC(=O)OCCC2CCN(CCSSCCN3CCC(CCOC(=O)Cc4ccc(OC(=O)CCCC(=O)OC[C@H](COC(=O)CCCCCC)OC(=O)CCCCCC)cc4)CC3)CC2)cc1 [compound 14] |  | superior hemolysis activity compared to LNP containing the cationic lipid of Comparative Example | did not exhibit hemolysis activity | 6.12E+09 photons/sec | 4.03 | 1.56E+08 RLU | 8.44 | 0.073 | -2.80 mV | 92.18 nm
